Here are results for one substance from patent US20220288130A1, “COMPOSITIONS AND METHODS FOR DIAGNOSIS AND TREATMENT OF METABOLIC DISEASES AND DISORDERS” (University of Louisville Research Foundation, Inc., priority 2019, published 2022).

Data set [1] relates to mouse hepatocytes (FL83B cells). Briefly: Glucose uptake assay (Glucose Uptake-Glo). The conditions noted are these: two-log difference in PC (34:2) concentration. It is filed as cell-based. Here is the method: Glucose uptake assay. Glucose uptake was performed using the Glucose Uptake-Glo™ Assay from Promega (J1341) in accordance with the manufacturer's instructions. Briefly, 2×10^4 cells were seeded into 96 well tissue culture plate in complete medium. […] Cells were treated with 1 nM of insulin for an additional 1 hour. Medium was removed and cells were washed twice with PBS. 50 μof 2-deoxyglucose (DG, 1 mM per well) was added and incubated for 1 hour at room temperature (RT). 25 μl of stop buffer added and mixed briefly, then 25 μl of neutralization buffer added and shaken briefly. 100 μl of 2DG6P detection reagent was added and the mixture shaken for 3 hours at RT. Luminescence was recorded with 135 gain efficiency using a SYNERGY H1 (BioTek Instruments, Inc., Winooski, Vt.) luminometer. […] These supernatants (0.5 ml) were further used in hepatocyte (cultured with 0.5×10^6 fecal exosomes) cultures to determine the which cytokines were induced by fecal exosome treatment of macrophages.

The subject of a further data set is AhR in FL83B cells. Briefly: AhR and pAhR expression in hepatocytes (western blot). It is filed as cell-based, mouse. Here is the method:
Cells. Murine hepatocytes (FL83B) and human hepatocytes (HepG2) (obtained from the American Type Culture Collection, ATCC®, Manassas, Va.) were grown in tissue culture plates with F12K medium (Thermo Fisher Scientific,) supplemented with 10% heat-inactivated fetal bovine serum (FBS), 100 U ml-1 penicillin, and […] streptomycin at 37° C. in a 5% CO2 atmosphere. Human monocytes (U937) were grown in RPMI 1640 medium (Thermo Fisher Scientific, Waltham, Mass.) supplemented with 10% FBS. For fecal exosomes (with or without PKH26 labeling) treatment for FL83B and HepG2 cells, 2×10^4 cells were seeded into six well plates. After achieving 50-60% confluence, fecal exosomes (numbers indicated in Figures) were added and incubated for 16 hours at 37° C. in a 5% CO2 atmosphere. Cells were washed with PBS and processed for imaging, RNA isolation, and protein extraction. […]
Western blot analysis. […] Protein concentrations were determined using the BioRad Protein Assay Reagent. […] Individual protein was detected with specific antibodies and visualized by infrared fluorescent secondary antibodies (Table 2). The protein bands were visualized and analyzed on an Odyssey CLx Imager (LiCor Inc, Lincoln, Nebr.).

In the case of phosphatidylcholine [PC (34:2)], the “glucose uptake, dose dependence” value in data set [1] is recorded as “inhibited in a PC-dose dependent manner”. In addition, the “AhR expression in hepatocytes” value in the data set on AhR in FL83B cells is reported as “confirmed in a PC-dose dependent manner”.
